In patent US9770026B2, “Substituted pyrimidine compound and uses thereof” (Shenyang Sinochem Agrochemicals R&D Co., Ltd., priority 2012, dated 2017):

Legend:
Diamond back moth = test: insecticidal activity against diamond back moth, airbrush spray; format: in vivo; conditions: for control (test results against diamond back moth): 600 ppm, mortality after 72 hrs
Method: Compounds were dissolved in mixed solvent (acetone:methanol=1:1), and diluted to required concentration with water containing 0.1% of tween 80.
Diamond back moth, armyworm, peach aphid and carmine spider mite were used as targets and the method of spraying by airbrush was used for determination of insecticidal biassays.
The method of spraying by airbrush: The cabbage leaves were made into plates of 2 cm diameter by use of punch. A test solution (0.5 ml) was sprayed by airbrush at the pressure of 0.7 kg/cm^2 to both sides of every plate. 10 Second instar larvae were put into the petri-dishes after the leaf disc air-dried and 3 replicates were set for each treatment. Then the insects were maintained in observation room (25° C., 60˜70% R.H.). Scores were conducted and mortalities were calculated after 72 hrs.

armyworm = test: bioactivity test against armyworm, airbrush spray; format: in vivo; conditions: for control (test results against armyworm): mortality after 72 h
[1] = tested on: Green peach aphids (Myzus Persicae Sulzer); test: bioactivity test against green peach aphid, airbrush foliar spray; format: in vivo; conditions: for Insecticidal activity against peach aphid (%): contrastive test; for control (test results against green peach aphid): death rate after 48 hrs
How it was run: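 Death rate was scored at 48 hrs, held at 25±1 C and 60±5% RH, following airbrush foliar spray (0.5 mL, 10 psi) onto cabbage leaf discs bearing about 15-30 aphids. Test solutions: compound dissolved in 1:1 acetone:methanol, brought to concentration with 0.1% tween 80 water.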

carmine spider mite = test: bioactivity test against carmine spider mite, airbrush spray; format: in vivo; conditions: for Insecticidal activity against carmine spider mite (% ): contrastive test; for control against carmine spider mite: mortality after 72 hrs
How it was run: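 Broadbean seedlings infested with adult mites were sprayed with compound (acetone/methanol stock diluted in 0.1% Tween 80 water) by airbrush at 0.7 kg/cm^2, 0.5 ml. Three replicates were run. Mortality was scored after 72 hrs.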

corn rust = test: protectant activity in vivo against corn rust
wheat powdery mildew = test: protectant activity in vivo against wheat powdery mildew; conditions: for protectant activity against wheat powdery mildew in vivo: 400 ppm
cucumber downy mildew = test: protectant activity in vivo against cucumber downy mildew; conditions: for control effect against cucumber downy mildew (%): protectant activity

Row | SMILES | Insecticidal activity against armyworm (%) (armyworm; 600 mg/L) | Insecticidal activity against peach aphid (%) ([1]; 2.5 mg/L) | Insecticidal activity against peach aphid (%) ([1]; 5 mg/L) | Insecticidal activity against peach aphid (%) ([1]; 10 mg/L) | Insecticidal activity against peach aphid (%) ([1]; 100 mg/L) | Insecticidal activity against peach aphid (%) ([1]; 600 mg/L) | Insecticidal activity against carmine spider mite (% ) (carmine spider mite; 600 mg/L) [%] | control (test results against diamond back moth) (Diamond back moth) [%] | control (test results against armyworm) (armyworm; 600 ppm) [%] | Insecticidal activity against peach aphid (%) ([1]; 1.25 mg/L) | control (test results against green peach aphid) ([1]; 10 ppm) [%] | control (test results against green peach aphid) ([1]; 100 ppm) [%] | control (test results against green peach aphid) ([1]; 600 ppm) [%] | control against carmine spider mite (carmine spider mite; 100 ppm) [%] | control against carmine spider mite (carmine spider mite; 600 ppm) [%] | protectant activity against wheat powdery mildew in vivo (wheat powdery mildew) [%] | further results
1 | CC(Cl)c1ncnc(NCCc2ccc(Oc3ncc(C(F)(F)F)cc3Cl)cc2)c1Cl (centres unmarked) [CK44, reference compound] | 0 | 0 | 19 | 35 | 98 | 100 | 0 |  |  |  |  |  |  |  |  |  | Insecticidal activity against diamond back moth (%) (Diamond back moth; 10 mg/L): 10%; Insecticidal activity against diamond back moth (%) (Diamond back moth; 100 mg/L): 25%; Insecticidal activity against diamond back moth (%) (Diamond back moth; 600 mg/L): 80%; control effect against corn rust (%) (corn rust; 400 mg/L, protectant activity): 85%; control effect against wheat powdery mildew (%) (wheat powdery mildew; 400 mg/L, protectant activity): 0%
2 | Cc1ncnc(NCCc2ccc(Oc3ccc(C(F)(F)F)cn3)cc2)c1Cl [Compound I-6735] |  | 80 | 100 | 100 | 100 | 100 |  | 100 | 100 | 67 | 100 | 100 | 100 | 100 | 100 | 100 | control (test results against green peach aphid) ([1]; 5 ppm): 100%; protectant activity against corn rust in vivo (corn rust; 100 ppm): 100%; protectant activity against corn rust in vivo (corn rust; 400 ppm): 100%
3 | Cc1ncnc(NCCc2ccc(Oc3ccc(C(F)(F)F)cc3)nc2)c1Cl [III-22] | 100 | 98 | 100 | 100 | 100 | 100 | 100 | 100 | 100 | 67 | 100 | 100 | 100 | 100 | 100 | 100 | Insecticidal activity against armyworm (%) (armyworm; 10 mg/L): 71%; Insecticidal activity against armyworm (%) (armyworm; 100 mg/L): 100%; control (test results against armyworm) (armyworm; 100 ppm): 100%; Insecticidal activity against carmine spider mite (% ) (carmine spider mite; 10 mg/L): 72%; Insecticidal activity against carmine spider mite (% ) (carmine spider mite; 100 mg/L): 100%; control effect against cucumber downy mildew (%) (cucumber downy mildew; 6.25 mg/L): 100%; control effect against cucumber downy mildew (%) (cucumber downy mildew; 12.5 mg/L): 100%; control effect against cucumber downy mildew (%) (cucumber downy mildew; 25 mg/L): 100%; control effect against cucumber downy mildew (%) (cucumber downy mildew; 50 mg/L): 100%; control effect against cucumber downy mildew (%) (cucumber downy mildew; 100 mg/L): 100%; control effect against cucumber downy mildew (%) (cucumber downy mildew; 400 mg/L): 100%; protectant activity against cucumber downy mildew in vivo (cucumber downy mildew; 6.25 ppm): 100%; protectant activity against cucumber downy mildew in vivo (cucumber downy mildew; 12.5 ppm): 100%; protectant activity against cucumber downy mildew in vivo (cucumber downy mildew; 25 ppm): 100%; protectant activity against cucumber downy mildew in vivo (cucumber downy mildew; 50 ppm): 100%; protectant activity against cucumber downy mildew in vivo (cucumber downy mildew; 100 ppm): 100%; protectant activity against cucumber downy mildew in vivo (cucumber downy mildew; 400 ppm): 100%
